Here are results for seven compounds from article PMC12703457, “Dynamic Anchoring of Peptides to the Extracellular Matrix Enabled by Boronic Acid” (Chembiochem, 2025).

Where “and” joins values, the source holds several entries; their conditions need not be identical. Equal entries are not always repeated. Where two headings read alike, the source gives them in different places. Bridge positions count the residues as written; N and C are the ends. Square brackets hold non-standard residues; d marks the D form. Peptide text beside a SMILES is read from it. * marks the point of attachment. Benzoyl(4-B(OH)2) = O=C(c1ccc(B(O)O)cc1)*; PEG6 = NCCOCCOCCOCCOCCOCCOCCC(=O)O

Data set [1] can be described thus: Alizarin Red S (ARS) assay, association of boronic acid with ARS. It is filed as binding. The note with it: for Association constant K eq with ARS: ARS assay, pH 7.4, 0.1 M phosphate buffer, fluorescence at 572 nm, average of triplicate runs.
Method: Affinity toward different monosaccharides was tested quantitatively by an Alizarin Red S (ARS) competition assay. ARS spectroscopic properties change upon the formation of a boronic ester with a boronic acid, resulting in fluorescence.^[ [4] ^, [19] ^] […] The affinity of aryl boronic acid to 1,2‐diols is known to be dependent on modifications of the underlying benzene.
The nature of data set [2]: ARS competition assay with D‐glucamine. Type of data set: binding. Particulars: for Association constant K eq with D‐glucamine: ARS competition assay, pH 7.4, 0.1 M phosphate buffer, fluorescence at 572 nm, average of triplicate runs; for Interaction with D‐glucamine in ARS competition assay: fluorescence decay at 572 nm, rising D‐glucamine concentrations, pH 7.4, n = 3.
Method: (§1) Affinity toward different monosaccharides was tested quantitatively by an Alizarin Red S (ARS) competition assay. ARS spectroscopic properties change upon the formation of a boronic ester with a boronic acid, resulting in fluorescence.^[ [4] ^, [19] ^] Additionally, the absorbance maximum of ARS shifts to shorter wavelengths upon ester formation, resulting in a color shift from red to orange, which facilitates the recognition of the formed bond (Figures S3 and S4, Supporting Information).
(§2) The assay was performed on a TECAN reader, Infinite M Plex, set up with 96‐well plates (Thermo Scientific, Nr. 137,103).

Data set [3] can be described thus: ARS competition assay with D‐(‐)‐fructose. The note with it: for Association constant K eq with D‐(‐)‐fructose: ARS competition assay, pH 7.4, 0.1 M phosphate buffer, fluorescence at 572 nm, average of triplicate runs. It is filed as binding.
Method: as §1, §2
Data set [4] in a line: ARS competition assay with D‐mannitol. The note with it: for Association constant K eq with D‐mannitol: ARS competition assay, pH 7.4, 0.1 M phosphate buffer, fluorescence at 572 nm, average of triplicate runs. Type of data set: binding.
Method: as §1, §2
The next data set has as its target T1, myostatin (Homo sapiens, UniProt O14793).
T1 construct: purchased Bio-techne (Minneapolis)
T1 sequence (O14793 267-375): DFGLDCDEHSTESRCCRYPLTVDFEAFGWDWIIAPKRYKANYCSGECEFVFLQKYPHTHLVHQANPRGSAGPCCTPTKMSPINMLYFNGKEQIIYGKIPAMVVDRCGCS
Put plainly: Myostatin inhibition assay, SMAD luciferase reporter in HEK SBE cells. Type of data set: cell-based. Background: A reporter such as luciferase makes a cellular process visible.

Data set [5] can be described thus: UV‐VIS spectra, shift of ARS absorbance maximum upon ester formation. Type of data set: binding. Particulars: UV‐VIS spectra in the presence of ARS. The text has this:
As a positive control, we used 4‐(dihydroxyboryl)benzoic acid coupled to the hydrophilic polymer PEG of 2000 Da, with a similar molecular weight. […] We continued to examine the binding of CBPA‐PEG‐MI to ARS in the presence of D‐glucamine, D‐(‐)‐fructose and D‐mannitol as a competition assay as outlined above (Figure 4B, Figure S11, Supporting Information).
Figure S10: UV-VIS spectra of various peptides bound to ARS or glucamine. CPBA was used as a positive control, while ARS serves as a negative control. (A) UV-VIS-spectra of the peptide CPBA-MI in the presence of ARS- or glucamine. (B) UV-VIS-spectra of the peptide CPBA-PEG-MI in the presence of ARS- or glucamine. (C) UV-VIS-spectra of the peptide Acetyl-MI in the presence of ARS- or glucamine.
Figure S11: Fluorescence decay at 572 nm measured in an ARS competition assay with CPBA-PEG-MI and the negative control acetyl-MI in the presence of rising concentrations of fructose (A) and mannitol (B) as model saccharides at pH 7.4.
Data are shown as mean ± STDEV (n = 3). […]

The subject of a further data set is fibronectin. The data set can be described thus: SDS‐PAGE of fibronectin incubated with boronic acid dye. It is filed as binding. The note with it: physiological pH; distinct fluorescence at 280 kDa. As for the experimental part: Figure 1 A) Fluorescent microscopy of CDM. Green channel: Staining with 10 μM FL2 is shown. Red channel: Staining with a primary antibody (rabbit; Anti‐fibronectin) and secondary antibody (Anti‐Rabbit IgG, CFTM633) is shown. Third channel: Both channels are merged. The negative control was only stained with the antibodies. Every CDM with FL2 was washed several times with either pH 4.1, pH 7.4, or pH 9.4. B) SDS‐PAGE of fibronectin incubated with FL2 under different pH conditions. (1) FL2 incubation at pH 7.4. (2) FL2 incubation at pH 4.1. (3) Coomassie stain for fibronectin. M = molecular standard.
For quantification, fibronectin was immobilized on Enzyme‐Linked Immunosorbent Assay (ELISA) plates before incubation with FL2. Surfaces were similarly treated with acidic, neutral, and basic conditions, and the remaining fluorescence of FL2 was quantified with each washing step (Figure S1, Supporting Information).
SDS‐PAGE was performed as described.^[ [27] ^] For the separation of small molecular weight peptides, tricine‐gel‐electrophoresis (Novex 10–20% Tricine Gel, 1.0 mm × 12 well, Invitrogen by Thermo Fisher Scientific) was performed, using Mini Gel Tanks from Invitrogen under standardized conditions. […] The gel was destained with demineralized water or destaining buffer (10% 10x ws buffer, 20% methanol, 70% Mili‐Q water) and captured using a Gel‐Reader from BioRad.

Data set [6] relates to cell‐derived decellularized extracellular matrices (CDMs) from NIH‐3T3 fibroblasts. Put plainly: Fluorescence imaging of CDMs with CPBA‐NQEQVSPL‐5/6‐carboxyrhodamine 110. It is filed as binding, murine. Particulars: fluorescence microscopy. As for the experimental part:
The hydrophilic PEG6 linker within the peptide structure was crucial to ensure sufficient water solubility.
For visualization of fibronectin, the CDMs were first blocked using 1x Roti‐Block for 60 min at RT and washed once with PBS. A combination of Rabbit Anti‐Fibronectin antibody (F3648) (1:400 in PBS, overnight at 4 °C) and Anti‐rabbit IgG (H + L), F(ab’)2 Fragment (Alexa Fluor 647 Conjugate) 4414 (1:200 in PBS, 90 min at RT) was used. […] The dye was removed, and the matrix was washed several times with one of […] different buffers (carbonate/bicarbonate, pH 9.4; 1x PBS, pH 7.4; 1x PBS, pH 8.0, and sodium‐acetate, pH 4.1). Images were taken on an Axio Observer.Z1 microscope equipped with a 63x Plan‐Apochromat […]/1.40 Oil DIC M77 objective (Zeiss), 38 HE Green Fluorescent Reflector (λex = 450–490 nm λem = 500–550 nm), 50 Cy5 Reflector (λex = 625–655 nm λem = 665–715 nm) and a mercury vapor short‐arc lamp.
Figure S9: (A) Fluorescent microscopy of CDM. Green channel: Staining with CBPA-[…]-5/6-Carboxyrhodamine
110 is shown. Red channel: Staining with a primary antibody (rabbit; Anti-fibronectin) and secondary antibody (Anti-Rabbit
IgG, AF647) is shown. Third channel: Both channels are merged. The negative control was only stained with the antibodies.
Every CDM with the CPBA-Peptide was washed several times with either pH 4.1, pH 7.4, pH 8.0 or pH 9.4. […]

The conditions of data set [7]: cited from earlier work. As to the method: Binding constants of boronic acids and diols have been previously linked to their pKA and pH environment, with phenylboronic acid (pKA = 8.8) showing a binding optimum with ARS at a pH of 7 (1.1 mM^−1).^[ [20] ^]
Where [8] appears, read: fluorescence decay at 572 nm, rising sugar concentrations, pH 7.4, n = 3.

The term IC50 denotes the point on the concentration scale where inhibition reaches its midpoint.

Method for myostatin: D) Myostatin inhibition by different MI peptides as determined via SMAD luciferase reporter with HEK SBE cells. 100 % activity corresponds to 4 nM myostatin. Data are shown as mean ± STDEV (n = 3).
The inhibition of all three MI peptides by myostatin was tested using a reporter gene luciferase assay in HEK293 cells, which monitored SMAD phosphorylation in response to varying myostatin concentrations, as described.^[ [24] ^]
HEK SBE cells (HEK‐293 cells stably transfected with a pGl3ti vector containing a Smad binding element at the promoter of the firefly luciferase gene and a hygromycin resistance gene) were used as previously described.^[ [24] ^] […] The total protein concentration of each sample was determined by the Bradford Protein concentration assay. […] The absorbance was measured with a plate reader (Infinite 200 PRO, Tecan). […] The injector of the plate reader was primed with luciferase assay reagent. The plate reader was programmed to automatically inject 100 μL of the reagent into each well and immediately measure the luminescence for 10 s. […] Relative light units per μg of total protein were calculated to analyze the inhibition of myostatin by all three MI peptides.

For NQEQVSPL [CPBA‐peptide], the “Association constant K eq with ARS” value in data set [1] was determined as 2.35 ± 0.1 mM⁻¹. Moreover, the “Association constant with ARS relative to unconjugated CPBA” value in [1] (pH 7.4, CPBA‐peptide versus CPBA) is recorded as 1.6 fold. The “Association constant K eq with D‐glucamine” value in [2] was 3.87 ± 0.7 mM⁻¹. For the same compound, the “Association constant K eq with D‐(‐)‐fructose” value in data set [3] stood at 0.29 ± 0.0 mM⁻¹. For the same compound, the “Association constant K eq with D‐mannitol” value in data set [4] was 0.22 ± 0.0 mM⁻¹.

As to `O=C(O)c1ccc(B(O)O)cc1` [CPBA, 4‐Carboxy‐phenyl‐boronic acid, reference compound], the “Association constant K eq with ARS” value in [1] came out at 1.46 ± 0.3 mM⁻¹. Moreover, the “Association constant K eq with D‐glucamine” value in data set [2] is 2.09 mM⁻¹ and 2.09 ± 0.6 mM⁻¹. In addition, the “Association constant K eq with D‐(‐)‐fructose” value in data set [3] was found to be 0.11 ± 0.0 mM⁻¹. For the same compound, in [4], the “Association constant K eq with D‐mannitol” value came out at 0.08 ± 0.0 mM⁻¹.

With `CSCC[C@@H]1NC(=O)[C@H](Cc2c[nH]c3ccccc23)NC(=O)[C@@H]2CCCN2C(=O)[C@H](Cc2c[nH]c3ccccc23)NC(=O)[C@H](CCCNC(=N)N)NC(=O)[C@H]([C@@H](C)O)NC(=O)[C@@H](NC(=O)[C@H](CCC(N)=O)NC(=O)CNC(=O)[C@H](CCC(N)=O)NC(=O)[C@@H](NC(=O)[C@H](C)NC(=O)[C@@H](NC(=O)CCOCCOCCOCCOCCOCCOCCNC(=O)c2ccc(B(O)O)cc2)C(C)C)[C@@H](C)O)CSSC[C@@H](C(=O)N2CCC[C@H]2C(=O)N2CCC[C@H]2C(=O)N[C@@H](CCC(N)=O)C(=O)NCC(=O)N[C@@H](Cc2c[nH]c3ccccc23)C(=O)NCC(=O)NCCOCCOCCOCCOCCOCCOCCC(N)=O)NC1=O` [CPBA‐PEG‐MI] ({Benzoyl(4-B(OH)2)-PEG6}-VATQGQCTRWPWMCPPQGWG[PEG6]-NH2; disulfide 7-14), in [2], the “Interaction with D‐glucamine in ARS competition assay” value is “strongest interaction”. The “Displacement of ARS from the peptide complex by D‐(‐)‐fructose” value in [3] (setting [8]) was “not able to displace ARS”. Further, the “Displacement of ARS from the peptide complex by D‐mannitol” value in [4] (setting [8]) is listed as “not able to displace ARS”. For the same compound, at myostatin, the IC50 was 1500 nM. In addition, the “Shift of the absorbance maximum of ARS upon ester formation” value in [5] is given as “shift of the absorbance maximum of ARS to shorter wavelengths”.

Consider `CSCC[C@@H]1NC(=O)[C@H](Cc2c[nH]c3ccccc23)NC(=O)[C@@H]2CCCN2C(=O)[C@H](Cc2c[nH]c3ccccc23)NC(=O)[C@H](CCCNC(=N)N)NC(=O)[C@H]([C@@H](C)O)NC(=O)[C@@H](NC(=O)[C@H](CCC(N)=O)NC(=O)CNC(=O)[C@H](CCC(N)=O)NC(=O)[C@@H](NC(=O)[C@H](C)NC(=O)[C@@H](NC(C)=O)C(C)C)[C@@H](C)O)CSSC[C@@H](C(=O)N2CCC[C@H]2C(=O)N2CCC[C@H]2C(=O)N[C@@H](CCC(N)=O)C(=O)NCC(=O)N[C@@H](Cc2c[nH]c3ccccc23)C(=O)NCC(=O)NCCOCCOCCOCCOCCOCCOCCC(N)=O)NC1=O` [Acetyl‐MI] (Ac-VATQGQCTRWPWMCPPQGWG[PEG6]-NH2; disulfide 7-14), for which, in data set [2], the “Interaction with D‐glucamine in ARS competition assay” value was “nonbinding”. Further, the IC50 at myostatin (HEK SBE luciferase reporter cells, 4 nM myostatin, 48 h, 37 °C, n = 3, read-out: IC50, inhibition of myostatin‐induced SMAD phosphorylation) turned out to be 1700 nM.

For `O=C1c2ccccc2C(=O)c2c1cc(S(=O)(=O)O)c(O)c2O` [ARS, Alizarin Red S], the “Binding to fibronectin after gel electrophoresis” value with fibronectin is recorded as “confirmed”.

CPBA–NQEQVSPL–5/6‐carboxyrhodamine 110: the “pH‐dependent binding to glycan structures of the ECM compared with FL2” value in data set [6] (100 μM, three hours at pH 9.4, washed at pH 4.1, 7.4, 8.0 or 9.4) is on record as “comparable pH‐dependent binding behavior”. In addition, in data set [6] (pH 7.4 wash), the “Binding to CDM at pH 7.4 compared with FL2” value was “quantitatively weaker”.

`OB(O)c1ccccc1` [phenylboronic acid]: the pKA in data set [7] is 8.8. Further, the “Binding constant with ARS at binding optimum” value in data set [7] (pH of 7) is 1.1 mM⁻¹.
